{"source": "patent US20020032193A1", "about": "“Use of potassium channel openers for the treatment of insulitis” (priority 2000, published 2002)", "key": {"[1]": {"system": "Rat islets", "assay": "Islet recovery after streptozotocin exposure", "assay_type": "cell-based, Sprague-Dawley rats", "protocol": "(§1) Pancreata from Sprague-Dawley rats were collagenase digested and islets collected with a braking pipette as previously described (Sandler S et al., Endocrinology, 1987;121:1424-31). Islets were precultured free floating in RPMI 1640 medium with 10% (v/v) fetal calf serum (FCS) and 11 mM glucose for 3 days in 5% CO2 at 37° C. before experiments. Medium was changed two times during preculture. Islets were then transferred to sterile Petri dishes in KRBH (Krebs-Ringer bicarbonate with HEPES) medium with 2 mg/mL bovine serum albumin (BSA) and 5.6 mM glucose.\n(§2) Stock solutions of test compounds dissolved in dimethyl sulphoxide were prepared and added to the Petri dishes. Islets were incubated in 5% CO2 at 37° C. for 30 minutes with or without test compounds and STZ in 0.9% NaCl was then added to a final concentration of 0.5 mM. Dry powder of alloxan was diluted to a stock of 50 mM just before the addition to the Petri dishes to a final concentration of 0.5 mM. The incubation continued for another 30 minutes and was terminated by the addition of 1 mL of cold KRBH. […]\nAbout 100 islets per condition were carefully transferred to a glass tube and spun down at 800 rpm for 1 minute. […] For estimation of islet recovery, 30 islets from each condition were transferred to Petri dishes as described above and the remaining islets counted after 24 hours."}, "[2]": {"system": "Rat islets", "assay": "Insulin secretion and islet insulin content after streptozotocin exposure", "assay_type": "cell-based, Sprague-Dawley rats", "conditions": "24 hours; for insulin content compared to islets incubated with STZ alone / insulin secretion compared to islets incubated with STZ alone: pre-incubated with KATP channel opener, then 0.5 mM STZ", "protocol": "as §1\n(§3) Stock solutions of test compounds dissolved in dimethyl sulphoxide were prepared and added to the Petri dishes. Islets were incubated in 5% CO2 at 37° C. for 30 minutes with or without test compounds and STZ in 0.9% NaCl was then added to a final concentration of 0.5 mM. Dry powder of alloxan was diluted to a stock of 50 mM just before the addition to the Petri dishes to a final concentration of 0.5 mM. The incubation continued for another 30 minutes and was terminated by the addition of 1 mL of cold KRBH. The islets were then washed twice in KRBH and studied for morphology and insulin secretion, or cultured for 2 or 24 hours in RPMI with 10% FCS and 11 mM glucose prior to morphological and biochemical examinations.\n(§4) Triplicates of five islets were transferred to 200 μl of KRBH with 2 mg/mL BSA and 16.7 mM glucose and incubated for 60 minutes in 5% CO2 at 37° C. Islets from each condition were then pooled and sonicated in 200 μl of redestilled water. A 50 μl aliquot of the homogenate was mixed with 125 μl acid ethanol (0.18 M HCl in 95% ethanol) and insulin extracted overnight. Insulin concentration in the sonicate and the culture medium was determined with radioimmunoassay."}, "[3]": {"system": "Rat islets", "assay": "Proinsulin and total protein biosynthesis after streptozotocin exposure", "assay_type": "cell-based, Sprague-Dawley rats", "protocol": "as §1, §3\nFor each condition duplicate samples of 20 islets were transferred to multiwell plates containing 100 μl KRBH with L-[4.5-^3H]leucine (50 μCi/ml), 2 mg/mL BSA and 16.7 mM glucose and incubated for 120 minutes in 5% C02 at 37° C. Islets were then washed in Hanks' solution supplemented with 10 mM nonradioactive leucine and subsequently sonicated in 200 μl of redestilled water. A 50 μl fraction of the aqueous homogenate was incubated for 90 minutes with insulin antibodies coupled to Sepharose beads to separate proinsulin from other labelled proteins (15). Total protein biosynthesis was obtained by precipitating the labelled proteins with trichloroacetic acid (TCA). The antibody bound and TCA precipitable radioactivity were determined in a liquid scintillation counter."}, "[4]": {"system": "Rat islets", "assay": "Glucose oxidation after streptozotocin exposure", "assay_type": "cell-based, Sprague-Dawley rats", "protocol": "as §1, §2\nGroups of 10 islets were transferred to glass vials with 100 μl KRBH supplemented with D-[U^14C]glucose and nonradioactive glucose to a final concentration of 16.7 mM glucose. […] Scintillation fluid was then added to each flask and the radioactivity counted in a liquid scintillation counter."}, "[5]": {"system": "Rat islets", "assay": "Insulin release after alloxan exposure", "assay_type": "cell-based, Sprague-Dawley rats", "conditions": "for counteraction of alloxan-induced reduction of insulin release: 0.3 mM opener, simultaneous incubation with 0.5 mM alloxan", "protocol": "as §1, §3, §4"}, "[6]": {"system": "Rat islets", "assay": "Glucose oxidation after alloxan exposure", "assay_type": "cell-based, Sprague-Dawley rats", "conditions": "for glucose oxidation rate, of control: islets treated with 0.5 mM alloxan in the presence of opener, 24 hours", "protocol": "as §1, §3\nGroups of 10 islets were transferred to glass vials with 100 μl KRBH supplemented with D-[U^14C]glucose and nonradioactive glucose to a final concentration of 16.7 mM glucose. Triplicate samples were used. The vials were suspended in scintillation flasks, gassed with 5% CO2 and sealed airtight. The flasks were then shaken for 90 minutes at 37° C. Metabolism was stopped by injection of 100 μl of 0.05 mM antimycin A into the center vial. Immediately thereafter 250 μl hyamine hydroxide was injected into the outer flask. CO2 was released from the incubation medium by injecting 100 μl of 0.4 M Na2HPO4 solution (pH 6.0) into the center vial. […] Scintillation fluid was then added to each flask and the radioactivity counted in a liquid scintillation counter."}, "[7]": {"system": "ischemic heart", "conditions": "Garlid KD et al., Circulation Res 1997; cited from earlier work"}, "[8]": {"conditions": "remaining islets after STZ 0.5 mM"}, "[9]": {"conditions": "recovered STZ islets at 24 hours"}, "[10]": {"conditions": "0.3 mM test compound + 0.5 mM STZ"}}}
{"compound": "CN(N=O)C(=O)N[C@H]1C(O)O[C@H](CO)[C@@H](O)[C@@H]1O", "note": "(mixture of isomers) [STZ, streptozotocin]", "values": [{"measurement": "islet loss", "setting": "[1]; STZ 0.5 mM for 30 minutes, then 24 hours culture", "result": 40, "unit": "%"}, {"measurement": "insulin content, of control", "setting": "[2]; [8]", "result": 50, "unit": "%"}, {"measurement": "insulin secretion, of control", "setting": "[2]; [8]", "result": 60, "unit": "%"}, {"measurement": "proinsulin biosynthesis, of control", "setting": "[3]; [9]", "result": 35, "unit": "%"}, {"measurement": "total protein biosynthesis, of control", "setting": "[3]; [9]", "result": 51, "unit": "%"}, {"measurement": "proinsulin/total protein biosynthesis ratio", "setting": "[3]; recovered STZ islets at 24 hours, 23% in control islets", "result": 15, "unit": "%"}, {"measurement": "insulin biosynthesis, of control", "setting": "[3]; remaining islets after STZ 0.5 mM, 24 hours", "result": 35, "unit": "%"}, {"measurement": "rate of glucose oxidation, of control", "setting": "[4]; islets after STZ 0.5 mM, 24 hours", "result": 16, "unit": "%"}]}
{"compound": "CC(C)NC1=NS(=O)(=O)c2sc(Cl)cc2N1", "note": "[6-Chloro-3-isopropylamino-4H-thieno[3,2-e]-1,2,4-thiadiazine 1,1-dioxide]", "values": [{"measurement": "islet loss", "setting": "[1]; 0.3 mM test compound preincubated 30 minutes + 0.5 mM STZ, 24 hours culture", "result": "no islet loss"}, {"measurement": "insulin content compared to islets incubated with STZ alone", "setting": "[2]", "result": "higher"}, {"measurement": "insulin secretion compared to islets incubated with STZ alone", "setting": "[2]", "result": "higher"}, {"measurement": "insulin biosynthesis compared to islets incubated with STZ alone", "setting": "[3]; [10]", "result": "higher"}, {"measurement": "glucose oxidation rate compared to islets incubated with STZ alone", "setting": "[4]; [10]", "result": "higher"}, {"measurement": "counteraction of alloxan-induced reduction of insulin release", "setting": "[5]", "result": "fully counteracted"}, {"measurement": "glucose oxidation rate, of control", "setting": "[6]", "result": "did not differ from control"}]}
{"compound": "O=C1NC(=O)C(=O)C(=O)N1", "note": "[alloxan]", "values": [{"measurement": "reduction of insulin release", "setting": "[5]; 0.5 mM alloxan", "result": 31, "unit": "%"}, {"measurement": "decrease of glucose oxidation rate", "setting": "[6]; 0.5 mM alloxan, after 24 hours", "result": 51, "unit": "%"}]}
{"compound": "CC1(C)Oc2ccc(C#N)cc2C(N2CCCC2=O)C1O", "note": "(stereo not drawn) [cromakalim]", "values": [{"measurement": "effect in ischemic heart", "setting": "[7]", "result": "beneficial, cardioprotective effect"}]}
{"compound": "CC1=NS(=O)(=O)c2cc(Cl)ccc2N1", "note": "[diazoxide]", "values": [{"measurement": "insulin content compared to islets incubated with STZ alone", "setting": "[2]", "result": "higher"}, {"measurement": "insulin secretion compared to islets incubated with STZ alone", "setting": "[2]", "result": "higher"}, {"measurement": "counteraction of alloxan-induced reduction of insulin release", "setting": "[5]", "result": "fully counteracted"}, {"measurement": "glucose oxidation rate, of control", "setting": "[6]", "result": 73, "unit": "%"}, {"measurement": "effect in ischemic heart", "setting": "[7]", "result": "beneficial, cardioprotective effect"}]}
{"compound": "CC(N/C(=N\\C#N)Nc1ccncc1)C(C)(C)C", "note": "(stereo not drawn) [pinacidil]", "values": [{"measurement": "effect in ischemic heart", "setting": "[7]", "result": "beneficial, cardioprotective effect"}]}
